According to patent US10821115B2, “Compounds that inhibit Mcl-1 protein” (priority 2017, dated 2020):
Read-outs that look alike come from different tables or passages of the source.

Experiments:
[1] = target: recombinant human Mcl-1 (residues 171-327) / Bim interaction (Homo sapiens (Human), UniProt Q07820); test: biochemical; type: binding; settings: TR-FRET, Mcl-1(171-327) / biotin-Bim (51-76); read-out: Mcl-1 HTRF IC50
[2] = test system: human multiple myeloma cell line, OPM-2; test: Cell viability assay (OPM-2 10 FBS), CellTiter-Glo; type: cell-based
Outline: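 Serially diluted test compounds are incubated 16 h with cells (3000/well) in RPMI 1640 supplemented with 10% FBS. Viability is then measured by luminescence and IC50 calculated by 4-parameter logistic fit.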

[3] = Homo sapiens, OPM-2, 16 h, read-out: OPM-2 10% FBS IC50 IP, OPM-2 cells, 10% FBS, 16 h, CellTiter-Glo
[4] = read-out: OPM-2 10% FBS IC50 IP, OPM-2 cells, 10% FBS, 16 h, CellTiter-Glo

Sequence of recombinant human Mcl-1 (residues 171-327) / Bim interaction (Q07820 171-327): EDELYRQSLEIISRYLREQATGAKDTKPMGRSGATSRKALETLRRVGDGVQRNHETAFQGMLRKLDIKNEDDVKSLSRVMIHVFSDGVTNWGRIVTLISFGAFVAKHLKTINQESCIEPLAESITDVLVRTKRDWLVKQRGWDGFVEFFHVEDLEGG

**Q.** Which IC50 [1] does the source give for `C[C@@H]1[C@@H](C)C/C=C/[C@@](O)(CC(=O)N2CC(F)(F)C2)[C@@H]2CC[C@H]2CN2C[C@@]3(CCCc4cc(Cl)ccc43)COc3ccc(cc32)C(=O)NS1(=O)=O` [Example 100297, (1S,3′R,6′R,7′S,8′E,11′S,12′R)-6-chloro-7′-(2-(3,3-difluoro-1-azetidinyl)-2-oxoethyl)-7′-hydroxy-11′,12′-dimethyl-3,4-dihydro-2H,15′H-spiro[naphthalene-1,22′-[20]oxa[13]thia[1,14]diazatetracyclo [14.7.2.0~3,6~.0~19,24~]pentacosa[8,16,18,24]tetraen]-15′-one 13′,13′-dioxide] here?
**A.** 0.115 nM

**Q.** What about the IC50 [2, 3] of the same molecule?
**A.** 168 nM

**Q.** With `C[C@@H]1[C@@H](C)C/C=C/[C@](O)(CC(=O)OCC2(C)COC2)[C@@H]2CC[C@H]2CN2C[C@@]3(CCCc4cc(Cl)ccc43)COc3ccc(cc32)C(=O)NS1(=O)=O` [Example 100298, (3-methyl-3-oxetanyl)methyl ((1S,3′R,6′R,7′R,8′E,11′S,12′R)-6-chloro-7′-hydroxy-11′,12′-dimethyl-13′,13′-dioxido-15′-oxo-3,4-dihydro-2H-spiro[naphthalene-1,22′-[20]oxa[13]thia[1,14]diazatetracyclo [14.7.2.0~3,6~.0~19,24~]pentacosa[8,16,18,24]tetraen]-7′-yl)acetate] as the molecule, how does the IC50 [1] read?
**A.** 0.14 nM

**Q.** And the IC50 [2, 3]?
**A.** 199 nM

**Q.** Which results are given for `C[C@@H]1[C@@H](C)C/C=C/[C@@](O)(CC(=O)OCC2(C)COC2)[C@@H]2CC[C@H]2CN2C[C@@]3(CCCc4cc(Cl)ccc43)COc3ccc(cc32)C(=O)NS1(=O)=O` [Example 100299, (3-methyl-3-oxetanyl)methyl ((1S,3′R,6′R,7′S,8′E,11′S,12′R)-6-chloro-7′-hydroxy-11′,12′-dimethyl-13′,13′-dioxido-15′-oxo-3,4-dihydro-2H-spiro[naphthalene-1,22′-[20]oxa[13]thia[1,14]diazatetracyclo [14.7.2.0~3,6~.0~19,24~]pentacosa[8,16,18,24]tetraen]-7′-yl)acetate]?
**A.** IC50 [1]: 0.35 nM; IC50 [2, 3]: 623 nM

**Q.** With `C[C@@H]1[C@@H](C)CCC[C@](C)(CN2CCN3CCOC[C@@H]3C2)[C@@H]2CC[C@H]2CN2C[C@@]3(CCCc4cc(Cl)ccc43)COc3ccc(cc32)C(=O)NS1(=O)=O` [Example 100300, (1S,3′R,6′R,7′S,11′S,12′R)-6-chloro-7′-((9aS)-hexahydropyrazino[2,1-c][1,4]oxazin-8(1H)-ylmethyl)-7′,11′,12′-trimethyl-3,4-dihydro-2H,15′H-spiro[naphthalene-1,22′-[20]oxa[13]thia[1,14]diazatetracyclo [14.7.2.0~3,6~.0~19,24~]pentacosa[16,18,24]trien]-15′-one 13′,13′-dioxide] as the molecule, how does the IC50 [1] read?
**A.** 0.109 nM

**Q.** What about the IC50 [2, 3] of the same molecule?
**A.** 235 nM

**Q.** With `C[C@@H]1[C@@H](C)CCC[C@](C)(CO)[C@@H]2CC[C@H]2CN2C[C@@]3(CCCc4cc(Cl)ccc43)COc3ccc(cc32)C(=O)NS1(=O)=O` [Example 100301, (1S,3′R,6′R,7′S,11′S,12′R)-6-chloro-7′-(hydroxymethyl)-7′,11′,12′-trimethyl-3,4-dihydro-2H,15′H-spiro[naphthalene-1,22′-[20]oxa[13]thia[1,14]diazatetracyclo [14.7.2.0~3,6~.0~19,24~]pentacosa[16,18,24]trien]-15′-one 13′,13′-dioxide] as the molecule, how does the IC50 [1] read?
**A.** 1.31 nM

**Q.** And the IC50 [2, 3]?
**A.** 1930 nM

**Q.** With `C[C@@H]1[C@@H](C)CCC[C@](C)(CN2CCOCC2)[C@@H]2CC[C@H]2CN2C[C@@]3(CCCc4cc(Cl)ccc43)COc3ccc(cc32)C(=O)NS1(=O)=O` [Example 100302, (1S,3′R,6′R,7′S,11′S,12′R)-6-chloro-7′,11′,12′-trimethyl-7′-(4-morpholinylmethyl)-3,4-dihydro-2H,15′H-spiro[naphthalene-1,22′-[20]oxa[13]thia[1,14]diazatetracyclo [14.7.2.0~3,6~.0~19,24~]pentacosa[16,18,24]trien]-15′-one 13′,13′-dioxide] as the molecule, how does the IC50 [1] read?
**A.** 3.8 nM

**Q.** What about the IC50 [2, 3] of the same molecule?
**A.** 4880 nM

**Q.** Which IC50 [1] does the source give for `C[C@@H]1[C@@H](C)CCC[C@@]2(C[C@H]2C(=O)N2CCN3CCOC[C@H]3C2)[C@@H]2CC[C@H]2CN2C[C@@]3(CCCc4cc(Cl)ccc43)COc3ccc(cc32)C(=O)NS1(=O)=O` [Example 100303, (1R,2R,3′R,6′R,11′S,12′R,22′S)-6″-chloro-2-((9aR)-hexahydropyrazino[2,1-c][1,4]oxazin-8(1H)-ylcarbonyl)-11′,12′-dimethyl-3″,4″-dihydro-2″H,15′H-dispiro[cyclopropane-1,7′-[20]oxa[13]thia[1,14]diazatetracyclo [14.7.2.0~3,6~.0~19,24~]pentacosa[16,18,24]triene-22′,1″-naphthalen]-15′-one 13′,13′-dioxide] here?
**A.** 3.64 nM

**Q.** What about the IC50 [2, 4] of the same molecule?
**A.** 7330 nM

**Q.** Which IC50 [1] does the source give for `C[C@@H]1[C@@H](C)CCC[C@@]2(C[C@H]2C(=O)N2CCN3CCOC[C@H]3C2)[C@@H]2CC[C@H]2CN2C[C@@]3(CCCc4cc(Cl)ccc43)COc3ccc(cc32)C(=O)NS1(=O)=O` [Example 100304, (1R,2R,3′R,6′R,11′S,12′R,22′S)-6″-chloro-2-((9aR)-hexahydropyrazino[2,1-c][1,4]oxazin-8(1H)-ylcarbonyl)-11′,12′-dimethyl-3″,4″-dihydro-2″H,15′H-dispiro[cyclopropane-1,7′-[20]oxa[13]thia[1,14]diazatetracyclo [14.7.2.0~3,6~.0~19,24~]pentacosa[16,18,24]triene-22′,1″-naphthalen]-15′-one 13′,13′-dioxide] here?
**A.** 0.311 nM

**Q.** And the IC50 [2, 4]?
**A.** 464 nM

**Q.** Which IC50 [1] does the source give for `C[C@@H]1[C@@H](C)C/C=C/[C@@](O)(CC(=O)N2CCN3CCOC[C@@H]3C2)[C@@H]2CC[C@H]2CN2C[C@@]3(CCCc4cc(Cl)ccc43)COc3ccc(cc32)C(=O)NS1(=O)=O` [Example 100305, (1S,3′R,6′R,7′S,8′E,11′S,12′R)-6-chloro-7′-(2-((9aS)-hexahydropyrazino[2,1-c][1,4]oxazin-8(1H)-yl)-2-oxoethyl)-7′-hydroxy-11′,12′-dimethyl-3,4-dihydro-2H,15′H-spiro[naphthalene-1,22′-[20]oxa[13]thia[1,14]diazatetracyclo [14.7.2.0~3,6~.0~19,24~]pentacosa[8,16,18,24]tetraen]-15′-one 13′,13′-dioxide] here?
**A.** 0.473 nM

**Q.** And the IC50 [2, 3]?
**A.** 1140 nM

**Q.** Which results are given for `CO[C@]1(CC(=O)O)/C=C/C[C@H](C)[C@@H](C)S(=O)(=O)NC(=O)c2ccc3c(c2)N(C[C@@H]2CC[C@H]21)C[C@@]1(CCCc2cc(Cl)ccc21)CO3` [Example 100306, ((1S,3′R,6′R,7′R,8′E,11′S,12′R)-6-chloro-7′-methoxy-11′,12′-dimethyl-13′,13′-dioxido-15′-oxo-3,4-dihydro-2H-spiro[naphthalene-1,22′-[20]oxa[13]thia[1,14]diazatetracyclo [14.7.2.0~3,6~.0~19,24~]pentacosa[8,16,18,24]tetraen]-7′-yl)acetic acid]?
**A.** IC50 [1]: 0.124 nM; IC50 [2, 3]: 278 nM

**Q.** What does the source list for `CO[C@@]1(CC(=O)O)/C=C/C[C@H](C)[C@@H](C)S(=O)(=O)NC(=O)c2ccc3c(c2)N(C[C@@H]2CC[C@H]21)C[C@@]1(CCCc2cc(Cl)ccc21)CO3` [Example 100307, ((1S,3′R,6′R,7′S,8′E,11′S,12′R)-6-chloro-7′-methoxy-11′,12′-dimethyl-13′,13′-dioxido-15′-oxo-3,4-dihydro-2H-spiro[naphthalene-1,22′-[20]oxa[13]thia[1,14]diazatetracyclo [14.7.2.0~3,6~.0~19,24~]pentacosa[8,16,18,24]tetraen]-7′-yl)acetic acid]?
**A.** IC50 [1]: 0.049 nM; IC50 [2, 3]: 1030 nM
